“And” between values parts separate entries of the source, which are not always exact repeats. Equal values may be shown once. Inconclusive results and toxic doses are left out.
Tested on: P388 leukemia ip, CD2F1 mice, survival T/C
Experiment: NCI In Vivo Anticancer Drug Screen. Data for tumor model P388 Leukemia (intraperitoneal) in CD2F1 (CDF1) mice
Details: endpoint: median survival time, higher = longer survival
How it was run: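 Mice carrying the transplanted tumor received test compound or vehicle. Survival was recorded in each group, and the value is the treated-group measurement divided by that of the vehicle-treated control group.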

[1] = dose: 50.0 mg/kg/injection, schedule: Q01DX001 (ip), vehicle: saline
[2] = dose: 100.0 mg/kg/injection, schedule: Q01DX001 (ip), vehicle: saline
[3] = dose: 60.0 mg/kg/injection, schedule: Q01DX005 (ip), vehicle: saline with Tween-80
[4] = dose: 120.0 mg/kg/injection, schedule: Q01DX005 (ip), vehicle: saline with Tween-80
[5] = dose: 240.0 mg/kg/injection, schedule: Q01DX005 (ip), vehicle: saline with Tween-80
[6] = dose: 25.0 mg/kg/injection, schedule: Q01DX009 (ip), vehicle: water
[7] = dose: 50.0 mg/kg/injection, schedule: Q01DX009 (ip), vehicle: water
[8] = dose: 100.0 mg/kg/injection, schedule: Q01DX009 (ip), vehicle: water
[9] = dose: 200.0 mg/kg/injection, schedule: Q01DX009 (ip), vehicle: water
[10] = dose: 50.0 mg/kg/injection, schedule: Q01DX005 (ip), vehicle: saline with Tween-80
[11] = dose: 100.0 mg/kg/injection, schedule: Q01DX005 (ip), vehicle: saline with Tween-80
[12] = dose: 200.0 mg/kg/injection, schedule: Q01DX005 (ip), vehicle: saline with Tween-80

## CCCCOC(=O)C1CSSCC(NC(C)=O)C(=O)N1 (stereo not given)
dose: 17.5 mg/kg/injection, schedule: Q01DX005 (ip), vehicle: Klucel (hydroxypropylcellulose) (HPC)
  T/C: 101 % of control
dose: 35.0 mg/kg/injection, schedule: Q01DX005 (ip), vehicle: Klucel (hydroxypropylcellulose) (HPC)
  T/C: 102 % of control
dose: 70.0 mg/kg/injection, schedule: Q01DX005 (ip), vehicle: Klucel (hydroxypropylcellulose) (HPC)
  T/C: 108 % of control

## Nc1nc2c(nnn2C2OC(COP(=O)(O)OP(=O)(O)O)C(O)C2O)c(=O)[nH]1 (stereo not given)
dose: 12.5 mg/kg/injection, schedule: Q01DX001 (ip), vehicle: saline
  T/C: 110 % of control
dose: 25.0 mg/kg/injection, schedule: Q01DX001 (ip), vehicle: saline
  T/C: 110 % of control
[1]
  T/C: 116 % of control
[2]
  T/C: 117 % of control

## OC1c2cc(Cl)ccc2-c2c(N=Cc3ccc4c(c3)OCO4)cc(Cl)cc21 (stereo not given)
[3]
  T/C: 91 % of control
[4]
  T/C: 99 % of control
[5]
  T/C: 98 % of control

## COc1ccc2c(c1OC)N(C)CC1=C2OC(C)(C)C2C1CC1(C)CC2c2c(c3ccc(OC)c(OC)c3n(C)c2=O)O1 (stereo not given)
dose: 12.5 mg/kg/injection, schedule: Q01DX005 (ip), vehicle: Klucel (hydroxypropylcellulose) (HPC)
  T/C: 90 % of control
dose: 25.0 mg/kg/injection, schedule: Q01DX005 (ip), vehicle: Klucel (hydroxypropylcellulose) (HPC)
  T/C: 93 % of control
dose: 50.0 mg/kg/injection, schedule: Q01DX005 (ip), vehicle: Klucel (hydroxypropylcellulose) (HPC)
  T/C: 90 % of control

## Cc1ccc(NCCCN2CCN(CCCNc3ccc(C)c4sc5ccccc5c(=O)c34)CC2)c2c(=O)c3ccccc3sc12
dose: 0.5 mg/kg/injection, schedule: Q01DX005 (ip), vehicle: saline with Tween-80
  T/C: 97 % of control
dose: 1.0 mg/kg/injection, schedule: Q01DX005 (ip), vehicle: saline with Tween-80
  T/C: 88 % of control
dose: 2.0 mg/kg/injection, schedule: Q01DX005 (ip), vehicle: saline with Tween-80
  T/C: 97 % of control
dose: 4.0 mg/kg/injection, schedule: Q01DX005 (ip), vehicle: saline with Tween-80
  T/C: 90 % of control

## NC(=O)Cn1ccnc1[N+](=O)[O-]
dose: 12.5 mg/kg/injection, schedule: Q01DX009 (ip), vehicle: water
  T/C: 93 % of control
[6]
  T/C: 99 % of control
[7]
  T/C: 90 % of control
[8]
  T/C: 118 % of control
[9]
  T/C: 107 % of control

## COC(C)(C)c1ccccc1[S+]1OC(C)(C)c2ccccc21 (stereo not given)
dose: 100.0 mg/kg/injection, schedule: Q04DX002 (ip), vehicle: suspension in saline
  T/C: 96 % of control
dose: 200.0 mg/kg/injection, schedule: Q04DX002 (ip), vehicle: suspension in saline
  T/C: 100 % of control
dose: 400.0 mg/kg/injection, schedule: Q04DX002 (ip), vehicle: suspension in saline
  T/C: 109 % of control

## O=[N+]([O-])c1cccc(CNc2ccccc2)c1
dose: 100.0 mg/kg/injection, schedule: Q04DX003 (ip), vehicle: Klucel (hydroxypropylcellulose) (HPC)
  T/C: 101 % of control
dose: 200.0 mg/kg/injection, schedule: Q04DX003 (ip), vehicle: Klucel (hydroxypropylcellulose) (HPC)
  T/C: 101 % of control
dose: 400.0 mg/kg/injection, schedule: Q04DX003 (ip), vehicle: Klucel (hydroxypropylcellulose) (HPC)
  T/C: 109 % of control

## O=C1CSC(c2ccc(Cl)cc2)N1c1nncs1 (stereo not given)
[3]
  T/C: 101 % of control
[4]
  T/C: 102 % of control
[5]
  T/C: 108 % of control

## C=C1C2(C(=O)O)CCC(C2)C1(C)C (stereo not given)
[10]
  T/C: 105 % of control
[11]
  T/C: 101 % of control
[12]
  T/C: 111 % of control

## Clc1cc(Cl)c(CBr)cc1CBr
dose: 3.0 mg/kg/injection, schedule: Q04DX003 (ip), vehicle: saline with Tween-80
  T/C: 104 % of control
dose: 6.0 mg/kg/injection, schedule: Q04DX003 (ip), vehicle: saline with Tween-80
  T/C: 104 % of control
dose: 12.0 mg/kg/injection, schedule: Q04DX003 (ip), vehicle: saline with Tween-80
  T/C: 100 % of control

## COc1cc2c(c(OC)c1OC)-c1ccc(SC)c(=O)cc1[C@@H](NC1OCC(O)C(O)C1O)CC2 (stereo not given in full)
dose: 1.5 mg/kg/injection, schedule: Q01DX009 (ip), vehicle: water
  T/C: 105 % of control
dose: 3.0 mg/kg/injection, schedule: Q01DX009 (ip), vehicle: water
  T/C: 117 % of control
dose: 6.0 mg/kg/injection, schedule: Q01DX009 (ip), vehicle: water
  T/C: 113 % of control
dose: 12.0 mg/kg/injection, schedule: Q01DX009 (ip), vehicle: water
  T/C: 121 % of control
dose: 24.0 mg/kg/injection, schedule: Q01DX009 (ip), vehicle: other
  T/C: 152 % of control
dose: 24.0 mg/kg/injection, schedule: Q01DX009 (ip), vehicle: water
  T/C: 123 % of control
dose: 48.0 mg/kg/injection, schedule: Q01DX009 (ip), vehicle: other
  T/C: 155 % of control

## O=C1CCC(C(=O)O)C(C(=O)O)C1 (stereo not given)
[1]
  T/C: 107 % of control
[2]
  T/C: 100 % of control
dose: 200.0 mg/kg/injection, schedule: Q01DX001 (ip), vehicle: saline
  T/C: 101 % of control
dose: 400.0 mg/kg/injection, schedule: Q01DX001 (ip), vehicle: saline
  T/C: 107 % of control

## COc1cccc2c1-c1nc(N)c3c(OC)cccc3c1C2=O
dose: 100.0 mg/kg/injection, schedule: Q04DX002 (ip), vehicle: Klucel (hydroxypropylcellulose) (HPC)
  T/C: 106 % of control
dose: 200.0 mg/kg/injection, schedule: Q04DX002 (ip), vehicle: Klucel (hydroxypropylcellulose) (HPC)
  T/C: 108 % of control
dose: 400.0 mg/kg/injection, schedule: Q04DX002 (ip), vehicle: Klucel (hydroxypropylcellulose) (HPC)
  T/C: 107 % of control

## O=[N+]([O-])C1CCCCCCCCCCC1
dose: 100.0 mg/kg/injection, schedule: Q01DX001 (ip), vehicle: other
  T/C: 100 % of control
dose: 200.0 mg/kg/injection, schedule: Q01DX001 (ip), vehicle: other
  T/C: 100 % of control
dose: 400.0 mg/kg/injection, schedule: Q01DX001 (ip), vehicle: other
  T/C: 108 % of control

## CC(=O)Oc1c(C)c(OC(C)=O)c2[nH]c(Cl)c(C=O)c2c1OC(C)=O
dose: 100.0 mg/kg/injection, schedule: Q01DX001 (ip), vehicle: Klucel (hydroxypropylcellulose) (HPC)
  T/C: 108 % of control
dose: 200.0 mg/kg/injection, schedule: Q01DX001 (ip), vehicle: Klucel (hydroxypropylcellulose) (HPC)
  T/C: 102 % of control

## OCC(O)C(O)C(O)c1nn(-c2ccccc2)c2nc3ccccc3nc12 (stereo not given)
dose: 25.0 mg/kg/injection, schedule: Q01DX005 (ip), vehicle: saline with Tween-80
  T/C: 94 % of control
[10]
  T/C: 100 % of control and 90 % of control
[11]
  T/C: 90 % of control
[12]
  T/C: 90 % of control

## COc1ccc2c(c1)OC1COc3cc(OC)c(OC)cc3C1C2=O (stereo not given)
dose: 12.5 mg/kg/injection, schedule: Q01DX009 (ip), vehicle: saline
  T/C: 101 % of control
dose: 25.0 mg/kg/injection, schedule: Q01DX009 (ip), vehicle: saline
  T/C: 94 % of control
dose: 50.0 mg/kg/injection, schedule: Q01DX009 (ip), vehicle: saline
  T/C: 92 % of control
dose: 100.0 mg/kg/injection, schedule: Q01DX009 (ip), vehicle: saline
  T/C: 93 % of control

## Nc1ccc2[nH]c3cnccc3c2c1
dose: 12.5 mg/kg/injection, schedule: Q01DX009 (ip), vehicle: other
  T/C: 103 % of control
dose: 25.0 mg/kg/injection, schedule: Q01DX009 (ip), vehicle: other
  T/C: 108 % of control
dose: 50.0 mg/kg/injection, schedule: Q01DX009 (ip), vehicle: other
  T/C: 103 % of control
dose: 100.0 mg/kg/injection, schedule: Q01DX009 (ip), vehicle: other
  T/C: 103 % of control

## COc1cccc(/C=C/C(=O)O)c1OC
[6]
  T/C: 98 % of control
[7]
  T/C: 91 % of control
[8]
  T/C: 94 % of control
[9]
  T/C: 100 % of control
dose: 400.0 mg/kg/injection, schedule: Q01DX009 (ip), vehicle: water
  T/C: 98 % of control

## Cc1cc2c(=O)cc(-c3ccc([N+](=O)[O-])cc3)oc2c(C#N)c1C
dose: 60.0 mg/kg/injection, schedule: Q01DX005 (ip), vehicle: Klucel (hydroxypropylcellulose) (HPC)
  T/C: 92 % of control
dose: 120.0 mg/kg/injection, schedule: Q01DX005 (ip), vehicle: Klucel (hydroxypropylcellulose) (HPC)
  T/C: 94 % of control
dose: 240.0 mg/kg/injection, schedule: Q01DX005 (ip), vehicle: Klucel (hydroxypropylcellulose) (HPC)
  T/C: 87 % of control

## c1ccc(N=N/C(=N\Nc2ccccc2)SCCS/C(N=Nc2ccccc2)=N/Nc2ccccc2)cc1
dose: 25.0 mg/kg/injection, schedule: Q01DX009 (ip), vehicle: saline with Tween-80
  T/C: 98 % of control and 97 % of control
dose: 50.0 mg/kg/injection, schedule: Q01DX009 (ip), vehicle: saline with Tween-80
  T/C: 93 % of control and 97 % of control
dose: 100.0 mg/kg/injection, schedule: Q01DX009 (ip), vehicle: saline with Tween-80
  T/C: 111 % of control and 92 % of control
dose: 200.0 mg/kg/injection, schedule: Q01DX009 (ip), vehicle: saline with Tween-80
  T/C: 98 % of control
